# ± gives the standard deviation of the averaged measurements.
# What was measured:
# Experiment in all cases: LOEC (log10 uM (lowest observed effect concentration))
# [1] = compound: CCNS(=O)(=O)C(F)(F)C(F)(F)C(F)(F)C(F)(F)C(F)(F)C(F)(F)C(F)(F)C(F)(F)F [N-Ethylperfluorooctanesulfonamide]
# Protocol: (§1)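 BioMAP Diversity Plus panel in human primary cell co-cultures, 4 concentrations in duplicate blinded samples. Responses are log10 fold change versus DMSO control, processed with tcpl v2.1.0. A hit is called when responses at any concentration exceed the cutoff (the larger of 3*bmad or log10(1.2)); the lowest observed effect concentration (modl_ga, log10 uM) is reported for hits.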
# [2] = compound: NS(=O)(=O)C(F)(F)C(F)(F)C(F)(F)C(F)(F)C(F)(F)C(F)(F)C(F)(F)C(F)(F)F [Perfluorooctanesulfonamide]
# Protocol: as §1
# Perfluoroundecanoic acid = compound: O=C(O)C(F)(F)C(F)(F)C(F)(F)C(F)(F)C(F)(F)C(F)(F)C(F)(F)C(F)(F)C(F)(F)C(F)(F)F [Perfluoroundecanoic acid]
# Protocol: as §1
# Perfluorononanoic acid = compound: O=C(O)C(F)(F)C(F)(F)C(F)(F)C(F)(F)C(F)(F)C(F)(F)C(F)(F)C(F)(F)F [Perfluorononanoic acid]
# Protocol: as §1
# [3] = compound: O=C(O)C(F)(F)OC(F)(F)C(F)(F)OC(F)(F)C(F)(F)OC(F)(F)C(F)(F)C(F)(F)C(F)(F)F [Perfluoro-3,6,9-trioxatridecanoic acid]
# Protocol: as §1
# [4] = compound: O=C(O)C=C(C(F)(F)F)C(F)(F)F [3,3-Bis(trifluoromethyl)-2-propenoic acid]
# Protocol: as §1
# [5] = compound: OCC(F)(F)OC(F)(F)C(F)(F)OC(F)(F)C(F)(F)OC(F)(F)CO [1H,1H,11H,11H-Perfluorotetraethylene glycol]
# Protocol: as §1
Test System,LOEC (log10 uM) [1],LOEC (log10 uM) [2],LOEC (log10 uM) (Perfluoroundecanoic acid),LOEC (log10 uM) (Perfluorononanoic acid),LOEC (log10 uM) [3],LOEC (log10 uM) [4],LOEC (log10 uM) [5]
KF3CT IP10 down,1.54 ± 0.34,1.3,0.845,1.78,0.845,,
KF3CT MCP1 down,,1.78,0.845,0.801 ± 0.71,0.845,,
KF3CT MIG down,,1.78,0.845,,1.3,,
KF3CT MMP9 down,1.3,1.3,0.301,1.31 ± 0.66,0.845,,
KF3CT PAI1 down,1.54 ± 0.34,1.54 ± 0.34,0.301,1.78,0.845,,
KF3CT SRB down,,1.78,0.845,,1.3,,
KF3CT TIMP2 down,1.78,1.78,0.845,,0.845,,
KF3CT uPA down,1.78,1.3,0.845,,1.3,,
LPS CD40 down,1.78,1.78,,1.78,1.78,1.78,
LPS CD69 down,,1.3,,1.78,1.78,,
LPS Eselectin down,,1.78,,,1.78,,
LPS IL8 down,1.78,1.78,,,1.07 ± 0.32,,
LPS MCP1 down,1.78,1.78,,1.78,1.54 ± 0.34,,
LPS MCSF down,,1.78,,,1.78,1.31 ± 0.66,
LPS SRB down,1.78,1.78,,1.78,1.78,,
LPS TissueFactor down,,1.78,,,1.78,,
LPS TissueFactor up,1.78,,,,,,
LPS VCAM1 down,,1.78,,1.78,1.78,0.573 ± 0.39,
MyoF ACTA1 down,1.78,1.3,0.845,1.78,0.845,,1.78
MyoF CollagenI down,1.78,1.3,0.301,1.54 ± 0.34,0.845,,
MyoF CollagenIII down,1.78,1.3,0.301,1.78,0.845,,
MyoF CollagenIV up,,,,1.3,,,
MyoF Decorin down,1.78,,0.845,,1.3,,
MyoF IL8 down,1.78,1.78,0.845,,1.78,,
MyoF PAI1 down,1.78,1.78,0.845,,1.07 ± 0.32,,
MyoF SRB down,1.78,1.3,0.845,,1.07 ± 0.32,,
MyoF TIMP1 down,1.3,1.78,0.573 ± 0.39,,1.3,,

Test System,LOEC (log10 uM) [1],LOEC (log10 uM) [2],LOEC (log10 uM) (Perfluoroundecanoic acid),LOEC (log10 uM) (Perfluorononanoic acid),LOEC (log10 uM) [3],LOEC (log10 uM) [4],LOEC (log10 uM) [5]
MyoF VCAM1 down,1.3,1.3,0.845,1.78,0.845,1.3,
MyoF bFGF down,1.78,1.78,0.845,,1.07 ± 0.32,,
SAg CD38 down,1.78,1.54 ± 0.34,,1.78,1.78,,
SAg CD40 down,1.3,1.3,0.845,1.78,1.78,,1.78
SAg CD69 down,1.3,1.54 ± 0.34,0.845,1.78,1.54 ± 0.34,1.78,
SAg MCP1 down,1.78,1.78,,1.78,1.78,,
SAg MIG down,,1.78,,,1.78,,
SAg PBMCCytotoxicity down,,1.78,,,1.78,,
SAg Proliferation down,1.78,1.78,,1.78,1.78,1.78,
SAg SRB down,1.78,1.78,,1.78,1.78,,
hDFCGF CollagenI down,1.78,,0.845,,1.54 ± 0.34,,
hDFCGF CollagenIII down,0.845,1.3,0.845,,0.845,,
hDFCGF EGFR down,,,0.301,,,,
hDFCGF ICAM1 down,1.54 ± 0.34,1.3,0.845,1.78,1.07 ± 0.32,,
hDFCGF IL8 down,1.78,1.3,0.845,,1.3,,
hDFCGF IP10 down,0.845,0.573 ± 0.39,0.301,1.78,0.845,,1.3
hDFCGF ITAC down,0.845,0.845,0.845,1.78,0.845,,1.3
hDFCGF MCP1 down,1.78,1.3,0.573 ± 0.39,,0.845,,1.54 ± 0.34
hDFCGF MCSF down,1.3,1.3,0.845,,0.845,,1.54 ± 0.34
hDFCGF MIG down,1.3,0.573 ± 0.39,0.845,1.54 ± 0.34,0.845,,0.845
hDFCGF MMP1 up,,,,,,,1.54 ± 0.34
hDFCGF PAI1 down,1.54 ± 0.34,1.3,0.845,,0.845,,
hDFCGF SRB down,1.54 ± 0.34,1.78,0.845,,0.845,,
hDFCGF TIMP1 down,1.78,,0.845,,1.07 ± 0.32,,
hDFCGF TIMP1 up,,1.78,,,,,
hDFCGF TIMP2 down,1.54 ± 0.34,,0.845,,0.845,,
